Test results from ChEMBL document CHEMBL2034879, “Discovery of SCH 900271, a Potent Nicotinic Acid Receptor Agonist for the Treatment of Dyslipidemia” (ACS Med Chem Lett, 2012).
One block for each compound: values may come before it. Active and inactive are the calls of the source. The rule behind the calls is not given here.

Experiments:
[1] = target: Hydroxycarboxylic acid receptor 3 (Homo sapiens, UniProt P49019); assay: Agonist activity at human GPR109b; assay type: functional
[2] = target: Hydroxycarboxylic acid receptor 2 (Rattus norvegicus, UniProt Q80Z39); assay: Agonist activity at rat GPR109a; assay type: functional
Hydroxycarboxylic acid receptor 2 (Rattus norvegicus, UniProt Q80Z39), sequence (Q80Z39 whole entry): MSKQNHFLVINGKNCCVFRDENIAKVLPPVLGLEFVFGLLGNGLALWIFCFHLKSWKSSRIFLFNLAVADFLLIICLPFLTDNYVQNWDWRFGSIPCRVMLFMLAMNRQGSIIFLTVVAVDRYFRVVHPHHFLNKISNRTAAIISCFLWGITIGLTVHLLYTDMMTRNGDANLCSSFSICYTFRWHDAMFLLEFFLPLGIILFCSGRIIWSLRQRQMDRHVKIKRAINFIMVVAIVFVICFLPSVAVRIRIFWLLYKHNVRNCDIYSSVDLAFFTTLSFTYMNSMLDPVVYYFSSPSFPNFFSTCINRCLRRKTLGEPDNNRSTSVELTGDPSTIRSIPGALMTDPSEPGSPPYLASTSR

[3] = target: Hydroxycarboxylic acid receptor 2 (Mus musculus, UniProt Q9EP66); assay: Agonist activity at mouse GPR109a; assay type: functional
Hydroxycarboxylic acid receptor 2 (Mus musculus, UniProt Q9EP66), sequence (Q9EP66 whole entry): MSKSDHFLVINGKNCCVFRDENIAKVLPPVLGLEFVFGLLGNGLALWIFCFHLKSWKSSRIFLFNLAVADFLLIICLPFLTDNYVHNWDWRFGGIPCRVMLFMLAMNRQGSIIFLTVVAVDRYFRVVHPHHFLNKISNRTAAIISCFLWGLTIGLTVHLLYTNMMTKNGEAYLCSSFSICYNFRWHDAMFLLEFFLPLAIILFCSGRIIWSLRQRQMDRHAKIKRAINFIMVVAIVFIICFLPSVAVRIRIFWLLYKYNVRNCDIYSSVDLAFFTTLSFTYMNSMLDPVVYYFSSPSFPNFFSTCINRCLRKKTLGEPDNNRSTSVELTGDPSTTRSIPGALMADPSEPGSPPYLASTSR

[4] = Agonist activity at dog GPR109a; assay type: functional, Canis lupus familiaris
Rattus norvegicus [5] = assay: Antidyslipidemic activity in fasted Sprague-Dawley rat assessed as reduction in free fatty acid level in plasma at 1 mg/kg, po after 1 hr relative to vehicle-treated control; assay type: functional; parameters: scale not given: the % may be the effect or the level left
Rattus norvegicus [6] = assay: Antidyslipidemic activity in fasted Sprague-Dawley rat assessed as reduction in triglyceride level in plasma at 1 mg/kg, po after 1 hr relative to vehicle-treated control; assay type: functional; parameters: scale not given: the % may be the effect or the level left
Canis familiaris [7] = assay: Antidyslipidemic activity in fasted beagle dog assessed as reduction in free fatty acid level in plasma at 1 mg/kg, po after 1 hr relative to vehicle-treated control; assay type: functional, Canis lupus familiaris; parameters: scale not given: the % may be the effect or the level left
[8] = AUC (0 to 24 hrs) in Sprague-Dawley rat at 5 mg/kg, po; assay type: ADME, organism-based; parameters: time < 24 hr, dose 5 mg/kg, route oral; conditions: plasma
[9] = Oral bioavailability in Sprague-Dawley rat at 5 mg/kg; assay type: ADME, organism-based; conditions: in vivo
Rattus norvegicus [10] = assay: Antidyslipidemic activity in po dosed fasted Sprague-Dawley rat assessed as reduction in free fatty acid level in plasma; assay type: functional; conditions: for minimal effective dose: read-out: MED
Rattus norvegicus [11] = assay: Antidyslipidemic activity in po dosed fasted Sprague-Dawley rat assessed as reduction in triglyceride level in plasma; assay type: functional
Rattus norvegicus [12] = assay: Antidyslipidemic activity in fasted Sprague-Dawley rat assessed as reduction in free fatty acid level in plasma at 3 mg/kg, po up to 2 hrs; assay type: functional, organism-based; parameters: dose 3 mg/kg
Rattus norvegicus [13] = assay: Antidyslipidemic activity in fasted Sprague-Dawley rat assessed as reduction in free fatty acid level in plasma at 3 mg/kg, po after 2 hrs; assay type: functional, organism-based; parameters: dose 3 mg/kg
Canis familiaris [14] = assay: Toxicity in fasted beagle dog assessed as flushing at 1 to 10 mg/kg, po; assay type: organism-based, Canis lupus familiaris; parameters: dose 1-10 mg/kg, route oral; conditions: in vivo
Canis familiaris [15] = assay: Toxicity in fasted beagle dog assessed as change in skin colour at 1 to 10 mg/kg, po; assay type: organism-based, Canis lupus familiaris; parameters: dose 1-10 mg/kg, route oral; conditions: in vivo
Canis familiaris [16] = assay: Toxicity in fasted beagle dog assessed as behavioural changes at 1 to 10 mg/kg, po; assay type: organism-based, Canis lupus familiaris; parameters: dose 1-10 mg/kg, route oral; conditions: in vivo
Canis familiaris [17] = assay: Toxicity in fasted beagle dog assessed as increase in cutaneous blood flow at 30 mg/kg, po relative to control; assay type: organism-based, Canis lupus familiaris; parameters: dose 30 mg/kg, route oral; conditions: in vivo
Canis familiaris [18] = assay: Toxicity in fasted beagle dog assessed as behavioural changes at 30 mg/kg, po relative to control; assay type: organism-based, Canis lupus familiaris; parameters: dose 30 mg/kg, route oral; conditions: in vivo
Mus musculus [19] = assay: Nephrotoxicity in CD1 mouse at 100 mg/kg, po administered qd for 5 days measured 2 hrs post-last dose; assay type: toxicity, organism-based; parameters: dose 100 mg/kg, route oral; conditions: in vivo
[20] = AUC (0 to 24 hrs) in beagle dog at 1 mg/kg, po; assay type: ADME, organism-based, Canis lupus familiaris; parameters: time < 24 hr, dose 1 mg/kg, route oral; conditions: plasma
[21] = Oral bioavailability in beagle dog at 1 mg/kg; assay type: ADME, organism-based, Canis lupus familiaris; conditions: in vivo
[22] = target: Voltage-gated inwardly rectifying potassium channel KCNH2 (Homo sapiens, UniProt Q12809); assay: Inhibition of human ERG up to 10 uM by patch clamp assay
Voltage-gated inwardly rectifying potassium channel KCNH2, sequence (Q12809 whole entry): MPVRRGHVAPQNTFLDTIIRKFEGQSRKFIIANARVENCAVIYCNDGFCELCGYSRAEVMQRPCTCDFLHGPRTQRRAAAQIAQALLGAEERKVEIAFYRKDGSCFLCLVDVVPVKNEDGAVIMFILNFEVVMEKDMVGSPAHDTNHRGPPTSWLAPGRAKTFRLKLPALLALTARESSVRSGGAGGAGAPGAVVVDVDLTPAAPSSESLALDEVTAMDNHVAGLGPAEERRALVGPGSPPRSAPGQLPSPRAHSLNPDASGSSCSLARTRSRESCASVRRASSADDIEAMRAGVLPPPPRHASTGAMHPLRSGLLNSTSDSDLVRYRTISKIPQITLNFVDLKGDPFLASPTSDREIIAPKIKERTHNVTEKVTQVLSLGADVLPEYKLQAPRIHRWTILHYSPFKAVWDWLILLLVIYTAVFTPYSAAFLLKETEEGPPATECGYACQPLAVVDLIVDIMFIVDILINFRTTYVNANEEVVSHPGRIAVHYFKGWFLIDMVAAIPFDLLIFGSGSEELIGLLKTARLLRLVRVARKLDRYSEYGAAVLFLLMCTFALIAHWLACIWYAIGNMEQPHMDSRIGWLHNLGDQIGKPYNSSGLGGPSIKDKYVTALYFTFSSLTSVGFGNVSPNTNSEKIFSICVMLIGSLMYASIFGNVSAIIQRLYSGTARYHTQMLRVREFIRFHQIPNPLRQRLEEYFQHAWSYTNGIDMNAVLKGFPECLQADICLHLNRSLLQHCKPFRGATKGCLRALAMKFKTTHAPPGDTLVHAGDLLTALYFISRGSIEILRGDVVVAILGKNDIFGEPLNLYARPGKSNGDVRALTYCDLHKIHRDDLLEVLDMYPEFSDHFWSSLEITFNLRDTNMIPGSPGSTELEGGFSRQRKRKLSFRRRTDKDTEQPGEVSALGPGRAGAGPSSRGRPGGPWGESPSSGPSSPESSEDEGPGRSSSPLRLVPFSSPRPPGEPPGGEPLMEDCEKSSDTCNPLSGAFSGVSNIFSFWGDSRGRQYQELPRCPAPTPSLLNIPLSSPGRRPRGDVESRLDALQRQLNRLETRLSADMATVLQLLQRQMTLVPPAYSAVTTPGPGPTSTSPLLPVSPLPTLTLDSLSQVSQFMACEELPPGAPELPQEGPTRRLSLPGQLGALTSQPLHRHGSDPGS

Cytochrome P450 1A2 = target: T1, Cytochrome P450 1A2 (Homo sapiens, UniProt P05177); assay: Inhibition of human CYP1A2; assay type: ADME
T1 sequence (P05177 whole entry): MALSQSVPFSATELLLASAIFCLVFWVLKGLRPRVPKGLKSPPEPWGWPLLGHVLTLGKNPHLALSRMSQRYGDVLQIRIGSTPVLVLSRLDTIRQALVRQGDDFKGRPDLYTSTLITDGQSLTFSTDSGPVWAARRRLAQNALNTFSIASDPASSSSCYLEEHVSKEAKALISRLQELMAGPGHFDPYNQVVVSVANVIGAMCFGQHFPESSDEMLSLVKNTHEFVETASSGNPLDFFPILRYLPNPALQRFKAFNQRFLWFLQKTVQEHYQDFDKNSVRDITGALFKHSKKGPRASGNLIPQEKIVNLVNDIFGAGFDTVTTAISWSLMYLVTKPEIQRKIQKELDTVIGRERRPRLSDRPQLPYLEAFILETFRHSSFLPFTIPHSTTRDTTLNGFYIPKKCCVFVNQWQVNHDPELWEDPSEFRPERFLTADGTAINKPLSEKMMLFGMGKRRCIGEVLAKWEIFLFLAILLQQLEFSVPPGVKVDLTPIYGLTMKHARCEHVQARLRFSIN

Cytochrome P450 2C9 = Cytochrome P450 2C9 (Homo sapiens, UniProt P11712); assay: Inhibition of human CYP2C9; assay type: ADME
Cytochrome P450 2C9, sequence (P11712 whole entry): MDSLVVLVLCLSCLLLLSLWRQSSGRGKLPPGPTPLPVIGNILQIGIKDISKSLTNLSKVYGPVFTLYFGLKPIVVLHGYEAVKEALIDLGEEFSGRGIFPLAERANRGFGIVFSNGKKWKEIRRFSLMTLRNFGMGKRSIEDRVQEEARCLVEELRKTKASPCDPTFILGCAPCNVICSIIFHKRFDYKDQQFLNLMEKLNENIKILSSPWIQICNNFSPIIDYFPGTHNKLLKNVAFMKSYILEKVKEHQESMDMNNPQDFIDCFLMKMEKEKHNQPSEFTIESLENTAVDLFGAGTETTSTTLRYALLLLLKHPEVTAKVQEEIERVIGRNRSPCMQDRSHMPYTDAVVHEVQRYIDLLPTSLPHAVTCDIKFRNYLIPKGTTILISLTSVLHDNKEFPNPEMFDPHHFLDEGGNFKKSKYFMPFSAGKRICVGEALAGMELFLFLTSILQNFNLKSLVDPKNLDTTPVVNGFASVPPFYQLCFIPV

Cytochrome P450 2D6 = Cytochrome P450 2D6 (Homo sapiens, UniProt P10635); assay: Inhibition of human CYP2D6; assay type: ADME
Cytochrome P450 2D6, sequence (P10635 whole entry): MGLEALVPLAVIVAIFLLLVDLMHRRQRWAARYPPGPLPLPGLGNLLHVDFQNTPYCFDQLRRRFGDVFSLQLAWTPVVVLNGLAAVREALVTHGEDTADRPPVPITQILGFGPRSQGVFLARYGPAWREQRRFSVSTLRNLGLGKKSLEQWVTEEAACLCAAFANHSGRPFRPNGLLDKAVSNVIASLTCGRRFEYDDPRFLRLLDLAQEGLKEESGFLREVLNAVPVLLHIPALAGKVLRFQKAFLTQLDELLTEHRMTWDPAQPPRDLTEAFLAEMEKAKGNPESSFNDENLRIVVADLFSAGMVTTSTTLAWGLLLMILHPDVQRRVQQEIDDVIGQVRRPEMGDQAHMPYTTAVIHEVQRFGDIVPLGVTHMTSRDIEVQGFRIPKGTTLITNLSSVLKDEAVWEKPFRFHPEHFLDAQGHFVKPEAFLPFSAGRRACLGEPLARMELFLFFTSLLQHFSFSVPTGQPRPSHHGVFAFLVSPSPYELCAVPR

Cytochrome P450 3A4 = Cytochrome P450 3A4 (Homo sapiens, UniProt P08684); assay: Inhibition of human CYP3A4; assay type: ADME
Cytochrome P450 3A4, sequence (P08684 whole entry): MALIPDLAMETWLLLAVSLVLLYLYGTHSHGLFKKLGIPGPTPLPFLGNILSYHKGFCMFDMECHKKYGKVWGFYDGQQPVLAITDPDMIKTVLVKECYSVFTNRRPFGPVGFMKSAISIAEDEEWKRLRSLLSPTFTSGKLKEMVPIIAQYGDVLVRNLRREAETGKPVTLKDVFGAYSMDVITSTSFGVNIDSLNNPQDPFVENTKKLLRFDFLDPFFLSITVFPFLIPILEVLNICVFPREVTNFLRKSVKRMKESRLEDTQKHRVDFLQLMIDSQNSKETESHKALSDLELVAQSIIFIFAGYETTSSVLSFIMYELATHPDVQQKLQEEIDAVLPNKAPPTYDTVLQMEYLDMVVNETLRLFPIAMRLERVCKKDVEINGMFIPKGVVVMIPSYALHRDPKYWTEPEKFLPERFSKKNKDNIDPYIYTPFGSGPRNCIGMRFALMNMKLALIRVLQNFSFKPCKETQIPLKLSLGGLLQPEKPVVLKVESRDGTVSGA

Liver microsomes [23] = assay: Intrinsic clearance in human liver microsomes assessed per 10^6 cells; assay type: ADME, Microsome
Liver microsomes [24] = assay: Intrinsic clearance in rat liver microsomes assessed per 10^6 cells; assay type: ADME, Microsome
Liver [25] = assay: Intrinsic clearance in dog liver microsomes assessed per 10^6 cells; assay type: ADME, Canis lupus familiaris, Microsome
Liver [26] = assay: Intrinsic clearance in mouse liver microsomes assessed per 10^6 cells; assay type: ADME, Microsome
Canis familiaris [27] = assay: Antidyslipidemic activity in fasted beagle dog assessed as reduction in free fatty acid level in plasma at 3 mg/kg, po after 1 hr relative to vehicle-treated control; assay type: functional, Canis lupus familiaris; parameters: scale not given: the % may be the effect or the level left
Canis familiaris [28] = assay: Antidyslipidemic activity in po dosed fasted beagle dog assessed as reduction in free fatty acid level in plasma after 4 hr relative to vehicle-treated control; assay type: functional, organism-based; conditions: Canis lupus familiaris
Canis familiaris [29] = assay: Toxicity in beagle dog assessed as flushing at 3 mg/kg, po; assay type: organism-based, Canis lupus familiaris; parameters: dose 3 mg/kg, route oral; conditions: in vivo
Canis familiaris [30] = assay: Antidyslipidemic activity in fasted beagle dog assessed as reduction in free fatty acid level in plasma at 0.3 mg/kg, po after 1 hr relative to vehicle-treated control; assay type: functional, Canis lupus familiaris; parameters: scale not given: the % may be the effect or the level left
Canis familiaris [31] = assay: Antidyslipidemic activity in po dosed fasted beagle dog assessed as reduction in free fatty acid level in plasma relative to vehicle-treated control; assay type: functional, organism-based; conditions: Canis lupus familiaris
Mus musculus [32] = species: Mus musculus; assay: Nephrotoxicity in CD1 mouse assessed as acute renal necrosis; assay type: toxicity, organism-based; conditions: in vivo
Mus musculus [33] = assay: Nephrotoxicity in CD1 mouse assessed as increase in serum blood urea nitrogen level at 100 mg/kg; assay type: toxicity, organism-based; parameters: dose 100 mg/kg; conditions: in vivo
Mus musculus [34] = assay: Nephrotoxicity in CD1 mouse assessed as increase in creatinine level at 100 mg/kg; assay type: toxicity, organism-based; parameters: dose 100 mg/kg; conditions: in vivo
Rattus norvegicus [35] = species: Rattus norvegicus; assay: Nephrotoxicity in rat assessed as increase in serum blood urea nitrogen level; assay type: toxicity, organism-based; conditions: in vivo
Rattus norvegicus [36] = species: Rattus norvegicus; assay: Nephrotoxicity in rat assessed as increase in creatinine level; assay type: toxicity, organism-based; conditions: in vivo
Canis familiaris [37] = assay: Antidyslipidemic activity in fasted beagle dog assessed as reduction in free fatty acid level in plasma at 2 mg/kg, po after 1 hr relative to vehicle-treated control; assay type: functional, Canis lupus familiaris; parameters: scale not given: the % may be the effect or the level left
Rattus norvegicus [38] = assay: Antidyslipidemic activity in fasted Sprague-Dawley rat assessed as reduction in free fatty acid level in plasma at 3 mg/kg, po after 1 hr relative to vehicle-treated control; assay type: functional; parameters: scale not given: the % may be the effect or the level left
Rattus norvegicus [39] = assay: Antidyslipidemic activity in fasted Sprague-Dawley rat assessed as reduction in triglyceride level in plasma at 3 mg/kg, po after 1 hr relative to vehicle-treated control; assay type: functional; parameters: scale not given: the % may be the effect or the level left

Hydroxycarboxylic acid receptor 3, sequence (P49019 whole entry): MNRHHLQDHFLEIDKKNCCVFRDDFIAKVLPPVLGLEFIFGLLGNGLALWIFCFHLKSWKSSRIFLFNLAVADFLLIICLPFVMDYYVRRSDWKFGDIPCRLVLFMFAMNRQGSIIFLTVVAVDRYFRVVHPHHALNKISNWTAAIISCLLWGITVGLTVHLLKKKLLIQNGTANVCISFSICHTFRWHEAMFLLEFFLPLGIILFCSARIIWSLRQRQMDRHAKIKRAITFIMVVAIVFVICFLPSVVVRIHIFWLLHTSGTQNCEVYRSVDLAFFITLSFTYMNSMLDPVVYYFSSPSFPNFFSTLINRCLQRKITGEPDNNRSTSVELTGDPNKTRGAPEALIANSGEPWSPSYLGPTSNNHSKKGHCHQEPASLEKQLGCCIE

EC50 [1]: 96 nM
EC50 [2]: 8 nM
EC50 [3]: 6 nM
EC50 [4]: 5 nM
AUC(0-t) at 24 h [8]: 7.6 µM·h
bioavailability [9]: 76%
AUC(0-t) at 24 h [20]: 7.2 µM·h
bioavailability [21]: 40%
IC50 (Cytochrome P450 1A2): > 50 µM
IC50 (Cytochrome P450 2C9): > 50 µM
IC50 (Cytochrome P450 2D6): > 50 µM
IC50 (Cytochrome P450 3A4): > 50 µM
CLH (Liver microsomes [23]): 1.6 µL/min
CLH (Liver microsomes [24]): 10 µL/min
CLH (Liver [25]): < 1 µL/min
CLH (Liver [26]): 8.7 µL/min
Structure (SMILES): CC1(CCCc2cc(=O)oc3[nH]c(=O)[nH]c(=O)c23)CC1 [SCH-900271]
Activity (Rattus norvegicus [5]): 53%
Activity (Rattus norvegicus [6]): 53%
Activity (Canis familiaris [7]): 50%
Activity (Rattus norvegicus [10]): Dose-dependent effect
ED50 (Rattus norvegicus [10]): 0.5 mg/kg
minimal effective dose (Rattus norvegicus [10]): 3 mg/kg
Activity (Rattus norvegicus [11]): Dose-dependent effect
ED50 (Rattus norvegicus [11]): 0.5 mg/kg
minimal effective dose (Rattus norvegicus [11]; read-out: MED): 3 mg/kg
Activity (Rattus norvegicus [12]): Active
Activity (Rattus norvegicus [13]): inactive
Activity (Canis familiaris [14]): Non-toxic
Activity (Canis familiaris [15]): Non-toxic
Activity (Canis familiaris [16]): Non-toxic
fold change (FC) (Canis familiaris [17]): 5
Activity (Canis familiaris [18]): Non-toxic
Activity (Mus musculus [19]): Non-toxic
inhibition (INH) [22]: Not Active

EC50 [1]: > 10000 nM
EC50 [4]: 31 nM
Structure (SMILES): O=C(O)c1cccnc1 [NIACIN]
Activity (Canis familiaris [27]): 38%
minimal effective dose (Rattus norvegicus [10]): 10 mg/kg

Second part, the compound before the results:

Structure (SMILES): O=c1[nH]c(=O)c2c(CCCC(F)F)cc(=O)oc2[nH]1
EC50 [1]: 59 nM
EC50 [2]: 2 nM
EC50 [3]: 5 nM
Activity (Rattus norvegicus [6]): 59%
Activity (Canis familiaris [27]): 80%
Activity (Canis familiaris [28]): inactive
Activity (Canis familiaris [29]): Toxic

Structure (SMILES): CCCCc1cc(=O)oc2[nH]c(=O)[nH]c(=O)c12
EC50 [1]: 190 nM
EC50 [2]: 8 nM
EC50 [3]: 12 nM
EC50 [4]: 16 nM
Activity (Rattus norvegicus [5]): 29%
Activity (Rattus norvegicus [6]): 40%
Activity (Canis familiaris [30]): 90%
Activity (Canis familiaris [31]): Dose-dependent effect
Activity (Mus musculus [32]): Toxic
Activity (Mus musculus [33]): Toxic
Activity (Mus musculus [34]): Toxic
Activity (Rattus norvegicus [35]): Non-toxic
Activity (Rattus norvegicus [36]): Non-toxic

Structure (SMILES): O=c1[nH]c(=O)c2c(CCCC3CC3)cc(=O)oc2[nH]1
EC50 [1]: 140 nM
EC50 [2]: 2 nM
EC50 [4]: 1 nM
Activity (Rattus norvegicus [5]): 58%
Activity (Rattus norvegicus [6]): 49%
Activity (Canis familiaris [37]): 80%
Activity (Mus musculus [33]): Toxic
Activity (Mus musculus [34]): Toxic
Activity (Rattus norvegicus [35]): Non-toxic
Activity (Rattus norvegicus [36]): Non-toxic

Structure (SMILES): O=c1[nH]c(=O)c2c(CCC3CCC3)cc(=O)oc2[nH]1
EC50 [1]: 67 nM
EC50 [2]: 5 nM
EC50 [3]: 4 nM
Activity (Rattus norvegicus [5]): 50%
Activity (Rattus norvegicus [6]): 31%
Activity (Mus musculus [33]): Toxic
Activity (Mus musculus [34]): Toxic
Activity (Rattus norvegicus [35]): Non-toxic
Activity (Rattus norvegicus [36]): Non-toxic

Structure (SMILES): CC(C)CCc1cc(=O)oc2[nH]c(=O)[nH]c(=O)c12
EC50 [1]: 1300 nM
Activity (Rattus norvegicus [38]): 15%
Activity (Rattus norvegicus [39]): 16%
